Experiments:
[1] = test system: monocytic iMCs in CT26 subcutaneous tumors; test: Flow cytometry of tumor-associated myeloid cells, CT26 subcutaneous tumors; format: in vivo, mouse; details: FIG. 38B
Experimental: (§1) Flow cytometry was performed to obtain a more extensive cellular subset analysis. In particular, the study examined T cell vs. Myeloid cells, Myeloid cell subsets, Regulatory vs. effector T cells, and Tumor markers vs. WBC (e.g., PD-L1 expression on tumor).
(§2) Different populations of tumor-associated myeloid cells can be identified by flow cytometry, e.g., monocytic immature myeloid cells (iMC),Granulocytic iMCs/Neutrophils, Tumor Associated Macrophages (TAMs), and Granulocytic MDSCs. The different populations, and panels for detecting MDSCs, are described in Cancer Discovery 2011; 1:54-67. Tumors may vary in their myeloid cell composition.

TMD8 cell line = test: Combination isobologram in TMD8 cell line; format: cell-based; details: combination of Compound AA and Compound BB
[2] = test system: bone marrow cells differentiating into MDSCs; test: Myeloid Derived Suppressor Cell differentiation assay; format: cell-based; details: FIG. 24A/24B
Experimental: A similar experiment was performed on bone marrow cells differentiating into MDSCs.

Oral exposure in the rat = format: in vivo
Oral exposure in the dog = format: in vivo
[3] = test system: M1 macrophage differentiation; test: M1 macrophage differentiation; format: cell-based
Experimental: A similar experiment was performed on M1 differentiation.

phospho-AKT in monocytes = test: Ex vivo whole blood stimulation of phospho-AKT in monocytes of LLC-bearing mice; details: LLC-bearing mice treated with compound
[4] = test system: spleen T cell proliferation; test: Ex vivo T-cell proliferation assay with tumor-derived cells from treated mice; format: in vivo
[5] = test system: collagen induced arthritis; test: Rat collagen induced arthritis (CIA) model; format: in vivo
[6] = Pharmacokinetics in rat, oral; format: in vivo
Text: (§3) Compound BB's oral exposure is high in rat, dog and monkey. Good oral bioavailability and low clearance in rodent and non-rodent animal species results in high oral exposure.

4T1 breast cancer = test: Orthotopic 4T1 breast cancer model; format: in vivo; details: Compound BB and/or PDL-1 inhibition
[7] = Cellular membrane permeability; format: in vitro ADME
Text: These properties indicate the compound's suitability for in vivo administration.

[8] = test system: suppression of spleen T cell proliferation by CT26 tumor cells; test: Ex vivo T cell proliferation assay with CT26 tumor cells (CFSE); format: cell-based, mouse; details: tumors from treated mice
Experimental: The duration of the study was 1 week under treatment. 5-6 week old female, Balb/c mice (Jackson Labs) implanted subcutaneously with 5×10^5 CT26 cells in 100 μl PBS. CT26 cells were cultured in RPMI supplemented with 10% FBS. Dosing commenced when tumors reached an average volume of 500-600 mm^3
For group 3 (αPD-L1), the mice were dosed once, IP, 200 ug (200 uL from 1 mg/ml stock).
Mice were monitored daily for adverse clinical effects. Body weights and tumor luminescent were measured two times per week. At the end of the study, tumors were harvested and cut into 3 parts; one piece for CTL killing assay, one piece for CSFE proliferation assay and one piece (split into two) for OCT/FFPE.
Spleens from 3 vehicle treated tumor bearing mice were physically dissociated in T cell media and passed through a 70 micron filter. After red cell lysis, the cells were pooled, brought up in PBS and stained with CFSE (invitrogen). After washing, these cells were brought up in 20 ml T cell media. Half the cells received Dynal mouse activator beads (CD3/CD28 crosslinking at a 1:1 […]). CD3/CD28 beads induce proliferation in splenocytes from tumor bearing mouse (data not shown).
The cells were treated with red cell lysis buffer, washed, and re-suspended in 10 ml T cell media. 2 mls of the each tumor cell suspension were plated into each of two 12 well plates. […]

[9] = test system: LPS induced neutrophil influx in bronchoalveolar lavage fluid; test: LPS-induced neutrophilia, oral administration; format: in vivo; details: rat, p.o., 4 hours post-LPS challenge, dose dependent
Experimental: This study also includes assessment of the exposure to the compounds in plasma and lung tissues.
Ref C is budesonide p.o. The compound was administered p.o. and about 1 hour later, LPS was administered intra-tracheally and plasma was collected. After about 5 hours, plasma and bronchoalveolar lavage samples were collected.

[10] = test system: tumor-associated myeloid cells in LLC tumor brei; test: Flow cytometry of tumor-associated myeloid cells, LLC tumor brei model; format: in vivo, mouse
Experimental: as §1, §2

tumor = test: Tumor growth, Compound BB alone and co-administered with 5-FU (FIG. 35); format: in vivo
[11] = Pharmacokinetics in monkey, oral; format: in vivo; details: 5 mg/kg oral
Text: as §3

C[C@H](NC(=O)c1c(N)nn2cccnc12)c1cc2cccc(C#Cc3cnn(C)c3)c2c(=O)n1-c1ccccc1 [Compound BB]
monocytic iMCs [1]: decreased
combination effect (isobologram) (TMD8 cell line): synergistic effect
VEGF and ARG1 in MDSC differentiation assay [2]: suppressed
oral exposure (Oral exposure in the rat): high
oral exposure (Oral exposure in the dog): high
M1 macrophage differentiation [3]: did not have an observable effect
ex vivo whole blood stimulation of phospho-AKT in monocytes (phospho-AKT in monocytes): inhibits
inhibition of spleen T cell proliferation by cells isolated from tumors of treated mice ([4]; compared to tumor derived cells from vehicle treated mice): less inhibitory of spleen T cell proliferation
immune suppressive environment ([4]; ex vivo T-cell proliferation assay): reduces immune suppressive environment
bone resorption score reduction ([5]; 0.5 mg/kg): 25%
cartilage damage score reduction ([5]; 0.5 mg/kg): 28%
inflammation score reduction ([5]; 0.5 mg/kg): 27%
pannus score reduction ([5]; 0.5 mg/kg): 28%
periosteal bone formation score reduction ([5]; 0.5 mg/kg): 52%
periosteal bone widths reduction ([5]; 0.5 mg/kg): 47%
reduction in summed scores ([5]; 0.5 mg/kg, non-significant): 31%
reduction of scored parameters ([5]; 0.5 mg/kg, non-significant): 27-52%
bone resorption score reduction ([5]; 1.5 mg/kg): 44%
cartilage damage score reduction ([5]; 1.5 mg/kg): 45%
inflammation score reduction ([5]; 1.5 mg/kg): 36%
pannus score reduction ([5]; 1.5 mg/kg): 44%
periosteal bone formation score reduction ([5]; 1.5 mg/kg): 52%
periosteal bone widths reduction ([5]; 1.5 mg/kg): 50%
reduction in summed scores ([5]; 1.5 mg/kg, significant): 42%
bone resorption score reduction ([5]; 5 mg/kg): 65%
cartilage damage score reduction ([5]; 5 mg/kg): 59%
inflammation score reduction ([5]; 5 mg/kg): 57%
pannus score reduction ([5]; 5 mg/kg): 71%
periosteal bone formation score reduction ([5]; 5 mg/kg): 82%
periosteal bone widths reduction ([5]; 5 mg/kg): 82%
reduction in summed scores ([5]; 5 mg/kg, significant): 64%
reductions in all scores ([5]; 5 mg/kg, significant): 57-82%
mean ankle diameter ([5]; day 9 to day 17, FIG. 1): therapeutic effects
oral exposure (plasma concentrations within 24 hours) ([6]; rat, 7.5 mg/kg oral): high
dose-exposure proportionality (AUC 0-last) ([6]; rats, oral 10, 25, and 100 mg/kg): good dose-exposure proportionality
total luciferase flux (4T1 breast cancer): reduced total luciferase flux
tumor growth (4T1 breast cancer): reduced tumor growth
cellular membrane permeability [7]: high cellular membrane permeability
Papp [10−6 cm/s] @ 10 uM ([7]; 10 uM): High
suppression of T cell proliferation by cells derived from CT26 mouse tumors [8]: can release the suppression
neutrophil in bronchoalveolar lavage fluid (BALF) [9]: reduced neutrophil
number of infiltrating TAMs ([10]; FIG. 38A): decreased
CD206 staining (M2 polarized suppressive macrophages) ([10]; FIG. 39): reduced
tumor growth (tumor; Compound BB alone): achieves a reduction in tumor growth
tumor growth (tumor; co-administration of Compound BB and 5-FU): achieves a further reduction
oral exposure (plasma concentrations within 24 hours) [11]: high
